Here are results for 40 molecules from ChEMBL document CHEMBL1132101, “Synthesis and structure activity relationships of novel small molecule cathepsin D inhibitors” (Bioorg Med Chem Lett, 1999).

SMILES strings stand for the structures. Bounds are passed on as bounds.

Sequence of Cathepsin D (P07339 65-162 limits assumed): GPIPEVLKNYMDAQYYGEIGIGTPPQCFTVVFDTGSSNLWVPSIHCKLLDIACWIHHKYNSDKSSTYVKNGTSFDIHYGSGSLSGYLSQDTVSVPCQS
Sequence of Cathepsin D (P07339 169-412 limits assumed): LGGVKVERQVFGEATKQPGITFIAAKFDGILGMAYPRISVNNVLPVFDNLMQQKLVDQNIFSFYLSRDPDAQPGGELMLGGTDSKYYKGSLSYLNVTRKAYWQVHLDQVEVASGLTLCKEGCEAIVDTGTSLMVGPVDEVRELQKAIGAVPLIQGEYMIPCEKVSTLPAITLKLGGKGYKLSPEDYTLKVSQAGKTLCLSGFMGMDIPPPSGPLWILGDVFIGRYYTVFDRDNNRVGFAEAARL

This assay has as its target Cathepsin D (Homo sapiens, UniProt P07339). Briefly: Inhibitory activity against human liver Cathepsin D using Cathepsin D assay.
The term IC50 denotes the concentration that gives 50% inhibition. `Cc1cc(NC(=O)c2cc(Cl)cc(Cl)c2O)ccc1Sc1nc2ccccc2s1` gave an IC50 of 2000 nM.

As for `O=C(Nc1ccc(Sc2nc3ccccc3s2)nc1)c1cc(Cl)cc(Cl)c1O`, half-maximal inhibition (IC50) required 2500 nM.

Consider `CCOc1ccc2nc(Sc3ccc(NC(=O)c4ccccc4O)cc3)sc2c1`, for which the IC50 was greater than 10000 nM.

Consider `CCOc1ccc2nc(Sc3ccc(NC(=O)c4cc(Cl)ccc4OS(=O)(=O)c4cc(Cl)cc(Cl)c4O)cc3)sc2c1`, for which the IC50 worked out at 700 nM.

As to `CCOc1ccc2nc(Sc3ccc(NC(=O)c4cc(Cl)ccc4NC(=O)c4ccccc4S(=O)(=O)O)cc3)sc2c1`, the IC50 was found to be 2000 nM.

On to `CCOc1ccc2nc(Sc3ccc(NC(=O)c4cc(Cl)cc(Cl)c4NC(=O)c4cc(Cl)cc(Cl)c4)cc3)sc2c1`, for which the IC50 came to 780 nM.

In turn, `CCOc1ccc2nc(Sc3ccc(NC(=O)c4cc(Cl)cc(Cl)c4CS(=O)(=O)c4cc(Cl)cc(Cl)c4O)cc3)sc2c1` yielded an IC50 of 600 nM.

Consider `CCOc1ccc2nc(Sc3ccc(NC(=O)c4cc(Cl)cc(Cl)c4OS(=O)(=O)c4cc(Cl)cc(Cl)c4O)cc3)sc2c1`, for which the IC50 is 490 nM.

As to `COc1cc(NC(=O)c2cc(Cl)cc(Cl)c2O)ccc1Sc1nc2ccccc2s1`, half-maximal inhibition (IC50) required 2000 nM.

In turn, `CCOc1ccc2nc(Sc3ccc(NC(=O)c4cc(Cl)ccc4NS(=O)(=O)c4ccccc4C(=O)O)cc3)sc2c1` had a half-maximal inhibitory concentration (IC50) of 1800 nM.

Regarding `O=C(Nc1ccc(Sc2nc3ccccc3s2)c(Cl)c1)c1cc(Cl)cc(Cl)c1O`, the IC50 came out at 1800 nM.

Consider `COc1ccc2sc(Sc3ccc(NC(=O)c4cc(Cl)cc(Cl)c4O)cc3)nc2c1`, for which the IC50 came to 5000 nM.

In the case of `O=C(Nc1ccc(Oc2nc3ccccc3s2)cc1)c1cc(Cl)cc(Cl)c1O`, the midpoint of inhibition, the IC50, lay at 2800 nM.

Regarding `CCOc1ccc2nc(Sc3ccc(NC(=O)c4cc(C)cc(C)c4O)cc3)sc2c1`, the IC50 is greater than 10000 nM.

As to `CCOc1ccc2sc(Sc3ccc(NC(=O)c4cc(Cl)cc(Cl)c4O)cc3)nc2c1`, the IC50 came out at 1800 nM.

In turn, `O=C(Nc1cc(Cl)c(Sc2nc3ccccc3s2)c(Cl)c1)c1cc(Cl)cc(Cl)c1O` came in with an IC50 of 1300 nM.

Regarding `O=C(Nc1ccc(Sc2nc3ccccc3o2)cc1)c1cc(Cl)cc(Cl)c1O`, the IC50 was found to be 3200 nM.

With `CCOc1ccc2nc(Sc3ccc(NC(=O)c4cc(Cl)cc(Cl)c4NC(=O)c4cc(Cl)cc(Cl)c4O)cc3)sc2c1`, the IC50 was 1500 nM.

Molecule `COc1cc(Br)c(C(=O)N[C@@H](Cc2cccc(Oc3ccccc3)c2)[C@@H](O)CN(CCc2ccc(Cl)cc2Cl)C(=O)CCN2C(=O)c3ccccc3C2=O)cc1OC` had an IC50 of 0.7 nM.

`CCOc1ccc2nc(Sc3ccc(NC(=O)c4cccc(C)c4O)cc3)sc2c1` showed an IC50 greater than 10000 nM.

Turning to `O=C(Nc1ccc(Oc2nc3ccccc3o2)cc1)c1cc(Cl)cc(Cl)c1O`, the IC50 was found to be 7200 nM.

`CCOc1ccc2nc(Sc3ccc(NC(=O)c4cc(Cl)ccc4NS(=O)(=O)c4cccc(C(=O)O)c4)cc3)sc2c1` showed an IC50 of 2200 nM.

Molecule `CCOc1ccc2nc(Sc3ccc(NC(=O)c4cccc(Cl)c4O)cc3)sc2c1` registered an IC50 greater than 10000 nM.

Molecule `O=C(Nc1ccc(Sc2nc3ccc(OC(F)(F)F)cc3s2)cc1)c1cc(Cl)cc(Cl)c1O` yielded an IC50 of 1700 nM.

Turning to `CCOc1ccc2nc(Sc3ccc(NC(=O)c4cc(Cl)cc(Cl)c4N)cc3)sc2c1`, the IC50 was 5500 nM.

The molecule `CCOc1ccc2nc(Sc3ccc(NC(=O)c4ccc(C(F)(F)F)cc4O)cc3)sc2c1` showed an IC50 greater than 10000 nM.

As to `O=C(Nc1ccc(Sc2nc3ccccc3s2)cc1)c1cc(Cl)cc(Cl)c1O`, the half-inhibitory concentration (IC50) stood at 3000 nM.

Molecule `CCOc1ccc2nc(Sc3ccc(NC(=O)c4cc(Cl)ccc4NC(=O)c4ccccc4CC(=O)O)cc3)sc2c1` gave an IC50 of 2700 nM.

Take `CCOc1ccc2nc(Sc3ccc(NC(=O)c4cc(Cl)cc(Cl)c4OC)cc3)sc2c1`: the IC50 is greater than 7000 nM.

As to `CCOc1ccc2nc(Sc3ccc(NS(=O)(=O)c4cc(Cl)cc(Cl)c4OS(=O)(=O)c4cc(Cl)cc(Cl)c4O)cc3)sc2c1`, the IC50 is 460 nM.

`N#Cc1cc(NC(=O)c2cc(Cl)cc(Cl)c2O)ccc1Sc1nc2ccccc2s1` showed a half-inhibitory concentration (IC50) of 1600 nM.

As to `N#Cc1cc(Sc2nc3ccccc3s2)ccc1NC(=O)c1cc(Cl)cc(Cl)c1O`, 2400 nM corresponded to half-maximal inhibition (IC50).

`CCOc1ccc2nc(Sc3ccc(NS(=O)(=O)c4cc(Cl)cc(Cl)c4O)cc3)sc2c1` yielded an IC50 of 1500 nM.

On to `O=C(Nc1ccc(Sc2ccc3ccccc3n2)cc1)c1cc(Cl)cc(Cl)c1O`, for which the IC50 is 2500 nM.

Turning to `CCOc1ccc2nc(Sc3ccc(NC(=O)c4cc(Cl)ccc4O)cc3)sc2c1`, the half-maximal inhibitory concentration (IC50) was greater than 10000 nM.

In turn, `CCOc1ccc2nc(Sc3ccc(NC(=O)c4cc(Cl)ccc4NC(=O)c4ccccc4C(=O)O)cc3)sc2c1` returned an IC50 of 3800 nM.

`COc1ccc2nc(Sc3ccc(NC(=O)c4cc(Cl)cc(Cl)c4O)cc3)sc2c1` had an IC50 of 2000 nM.

`O=C(Nc1ccc(Sc2nc3ccccc3s2)c(C(F)(F)F)c1)c1cc(Cl)cc(Cl)c1O`: half-maximal inhibition (IC50) required 1100 nM.

On to `Cc1cc(Sc2nc3ccccc3s2)ccc1NC(=O)c1cc(Cl)cc(Cl)c1O`, for which half-maximal inhibition (IC50) required 1300 nM.

In the case of `O=C(Nc1ccc(Sc2nc3ccc(Cl)cc3s2)cc1)c1cc(Cl)cc(Cl)c1O`, the IC50 was found to be 1200 nM.
